Columns and labels:
[1] = PAMPA (parallel artificial membrane permeability assay); format: in vitro ADME; details: for Papp at 10 h, 500 µM: PAMPA, read-out: PAMPA log Pe (converted); for Papp at 10 h, 500 µM / Fa (fraction absorbed): compounds at 500 µM, 5% DMSO in PBS pH 7.4, 10 hours, room temperature
Description: PAMPA – methods and results (Table S2)
PAMPA was carried out in 96-well microtiter filter plates obtained from Millipore as described1 with some modifications. Each well of the filter plate was impregnated with 15 µL of 5% hexadecane dissolved in hexane (i.e. total amount of hexadecane: 0.75 µL) for at least 10 minutes in ventilated environment to allow for complete evaporation of hexane. Donor compartments were filled with 200 µL compound-containing donor solutions of compounds dissolved in 5% DMSO, phosphate buffered saline PBS) and connected to acceptor plate prefilled with buffer (5% DMSO in PBS, pH 7.4). The resulting sandwich was incubated at room temperature under gentle shaking and wrapped in wet paper towels to avoid evaporation. After 10 hours, the sandwich was disassembled and the solutions in the acceptor and donor were transferred to a disposable UV-transparent plate. UV absorption was measured at wavelengths between 220 and 340 nm using a microplate reader (CLARIOstar).
Compounds were tested at 500 µM. Calibration to determine concentration of compounds were performed with varying compound concentrations in buffer (5% DMSO in PBS).
The artificial membrane permeability is expressed as fraction absorbed (Fa%)2 or log Pe (log of the effective permeability)1. LogD values at pH 7.4 were calculated using MarvinSketch.
Fa% = 100 ∙CA ∙VA / CD0 ∙ VD where: CA = final drug concentration in the acceptor well (µM)
VA = volume in the acceptor well (cm3)
CD0 = Initial drug concentration in the donor well (µM)
VD = volume in the donor well (cm3) log P (cm/s) = log -ln 1-CA/Cequilibrium
S = surface area (cm2), typically 0.268 cm2
Cequilibrium = theoretical equilibrium concentration = [CD ∙VD+CA ∙VA] / [VD+VA] where: CD = final drug concentration in the donor well (µM)
CA = final drug concentration in the acceptor well (µM)
Table S2. Permeability data.
Compounds Fa (%) PAMPA log Pe (cm/s) cLogD (pH = 7.4)

porcine liver esterase = assay: Esterase treatment with UPLC-HRMS analysis; format: in vitro ADME
Description: Esters 13b and 15b were subjected to esterase treatment (porcine liver esterase) at 37 °C and pH 7.4 for 2 h, and then the reaction mixtures were analyzed using UPLC-HRMS (Figure 4).[24] The molecular mass of the new products formed was determined by MS and confirmed that they were the expected carboxylic acids. […] The second hydrolysis is presumably slower because the substrate 17 is anionic, whereas for the first hydrolysis, the substrate 13b is neutral.[19],[25],[26] When 13b enters a cell through passive diffusion, the intracellular esterases will begin to hydrolyze the ester groups to give first 17 and then 14b. Since both 17 and 14b are negatively charged under physiological conditions, they will be unable to diffuse back out of the cell and so should accumulate there.[27] Diester 13b is more hydrophobic than triazole hydroxamate 4 (c Log D: 0.8 vs −0.5) and so should diffuse into cells more readily. […] Thus, we anticipate that 13b will be as useful as 4 in probing the role of vitamin B1 in cells.
Figure 4 UPLC-HRMS analysis of the esterase treatment. […] Compound (retention time/min): diester 13b (1.30), dicarboxylate 14b (0.51), monoester 15b (0.99), monocarboxylate 16b (0.51), and intermediate 17 (0.67).

TPP-dependent enzymes = assay: Inhibition / relative affinity across the TPP-dependent enzymes (PDH E1, PDC, PO, OGDH E1); format: biochemical; details: comparison of relative affinities
Description: The different biochemical reactions catalyzed, preferred substrates (Table S1), and primary sequences reflect the structurally and functionally diverse members of the family. […] However, as the inhibitors are TPP-competitive, what really matters is the affinity of each inhibitor relative to the affinity of TPP for that particular enzyme.

Row | Structure (SMILES) | Papp at 10 h, 500 µM [1] | Fa (fraction absorbed) [1] | outcome of esterase treatment (porcine liver esterase; 37 °C, pH 7.4, 2 h) | outcome of esterase treatment (porcine liver esterase; after 24 h) | affinities, fold lower than those of 14b (TPP-dependent enzymes) | membrane permeability in PAMPA (in words) [1]
1 | COC(=O)C(CCCc1cn(Cc2cnc(C)nc2N)nn1)C(=O)OC [13b] | 63.1 nm/s | 42% | the major product was monoester monocarboxylate 17 | the only product seen was dicarboxylate 14b | approximately 3 fold | 
2 | Cc1ncc(Cn2cc(CCCC(C(=O)[O-])C(=O)[O-])nn2)c(N)n1.[K+].[K+] [14b] | 1.58 nm/s | 1% |  |  |  | membrane-impermeable
3 | Cc1ncc(Cn2cc(CCCCC(=O)[O-])nn2)c(N)n1.[K+] [16b] | 3.98 nm/s | 2% |  |  | approximately 3 fold | impermeable
4 | COC(=O)CCCc1cn(Cc2cnc(C)nc2N)nn1 [15a] | 50.1 nm/s | 38% |  |  |  | membrane-permeable
5 | Cc1ncc(Cn2cc(CCCC(=O)[O-])nn2)c(N)n1.[K+] [16a] | 3.98 nm/s | 3% |  |  |  | impermeable
6 | Cc1ncc(Cn2cc(CCC(C(=O)[O-])C(=O)[O-])nn2)c(N)n1.[K+].[K+] [14a] | 3.16 nm/s | 2% |  |  |  | impermeable
7 | COC(=O)CCCCc1cn(Cc2cnc(C)nc2N)nn1 [15b] | 63.1 nm/s | 44% | completely hydrolyzed into monocarboxylate 16b |  |  | membrane-permeable
8 | COC(=O)C(CCc1cn(Cc2cnc(C)nc2N)nn1)C(=O)OC [13a] | 63.1 nm/s | 39% |  |  |  | membrane-permeable
